Patent publication US20100280052A1, “USE OF ANTIVIRALS TO TREAT CMV-RELATED CONDITIONS” (priority 2007, published 2010)

Legend:
[1] = cited from earlier work; for side effects: at common doses
CMV [2] = conditions: ganciclovir and valganciclovir compared with acyclovir and valacyclovir; cited from earlier work
[3] = prodrug compared with penciclovir; cited from earlier work
[4] = test system: CMV-specific CD4+ T cells; experiment: CD4+ T cells producing interferon-gamma after CMV lysate stimulation, single individual (Example 2, FIG. 17); type: in vivo, human; conditions: before, 3 and 14 months after treatment with acyclovir 40 mg b.d.
Excerpt: Referring to FIG. 17, the blood was stimulated with CMV lysate, and the percentage of CD4+ T cells which produce interferon-gamma in response to antigen measured. It can be seen that this percentage was reduced on treatment.

CD8+ T cells = experiment: CD57 antibody staining of peripheral blood CD8+ T cells (Example 1, FIG. 16); type: in vivo, human; conditions: CMV seropositive donors, patients taking drug vs healthy controls
Description: (§1) The CMV-specific immune response was measured in a cohort of CMV seropositive or seronegative donors who are taking acyclovir or valaciclovir. This was compared to an age-matched control cohort. […] Comprehensive analysis of (1) the total T cell profile of these donors, and (2) their CMV-specific response, was performed. The results were compared to an age-matched control group of CMV seropositive or seronegative donors.

CMV-specific T cells [5] = experiment: Elispot analysis of antigen-specific T cells after CMV lysate stimulation (Example 1, FIG. 11); type: in vivo, human; conditions: patients taking ACV or VCV vs healthy CMV seropositive donors
Description: as §1
A reduced Elispot response to CMV is seen in patients taking ACV or VCV.

CMV-specific T cells [6] = experiment: Interferon-gamma Elispot analysis of CMV-specific T cells, single individual (Example 2, FIG. 18); type: in vivo, human; conditions: before, 3 and 14 months after treatment with acyclovir 40 mg b.d., CMV lysate or pp65 or IE-1 peptide pools
Excerpt: Finally, referring to FIG. 18, the blood was stimulated with CMV lysate, or peptide pools from CMV pp65 or IE-1, and the number of CMV-specific T cells was detected using interferon-gamma Elispot analysis. It can be seen that the magnitude of this response was reduced by treatment.

CD4+ T cells = experiment: CD27, CD28, CD57 antibody staining of peripheral blood CD4+ T cells (Example 1, FIGS. 12-15); type: in vivo, human; conditions: CMV-seropositive patients taking ACV or VCV vs healthy donors; for percentage of CD4+ T cells which have lost expression of CD27: FIGS. 12, 13; for percentage of CD4+ T cells which have lost expression of CD28: FIGS. 12, 14; for percentage of CD4+ T cells which have gained expression of CD57: FIGS. 12, 15
Description: as §1
In FIG. 12, CD4+ T cells in peripheral blood of 35 CMV-seropositive or seronegative healthy donors were stained with antibodies to CD27, CD28 or CD57. These are shown on the left panel. A similar analysis was performed on patients taking acyclovir or valacyclovir (right hand panel). It can be seen that the percentage of CD4 + T cells which have lost expression of CD27 or CD28, or have gained expression of CD57, is lower in CMV-seropositive patients who are taking ACV or VCV in comparison to healthy donors.
Referring to FIG. 13, CD4+ T cells in peripheral blood of 25 healthy donors or patients taking ACV or VCV were stained with antibodies to CD27.
Referring to FIG. 14, CD4+ T cells in peripheral blood of 25 healthy donors or patients taking ACV or VCV were stained with antibodies to CD28.
Referring to FIG. 15, CD4+ T cells in peripheral blood of 25 healthy donors or patients taking ACV or VCV were stained with antibodies to CD57.

CMV [7] = conditions: cited from earlier work
CMV-specific T cells [8] = experiment: CMV-specific T cells detected by Interferon-gamma expression in blood of patients taking ACV or VCV (Example 1, FIGS. 9, 10); type: in vivo, human
[9] = FIG. 9, CMV seropositive patients on ACV 400 mg b.d. or VCV 500 mg o.d. or b.d. vs healthy control CMV seropositive donors, CMV lysate or pp65 and IE-1 peptide pools
[10] = FIG. 10, time-dependent effect, ACV 400 mg b.d. or VCV 500 mg o.d. or b.d., CMV lysate

| SMILES | activity against CMV (CMV [2]) | percentage of CD8+ T cells which express CD57 (CD8+ T cells) | Elispot response to CMV (CMV-specific T cells [5]) | percentage of CD4+ T cells which have lost expression of CD27 (CD4+ T cells) | percentage of CD4+ T cells which have lost expression of CD28 (CD4+ T cells) | percentage of CD4+ T cells which have gained expression of CD57 (CD4+ T cells) | side effects [1] | number of CMV-specific T cells (Interferon-gamma expression) (CMV-specific T cells [8]; [9]) | number of CMV-specific T cells (Interferon-gamma expression) (CMV-specific T cells [8]; [10]) | also measured |
| --- | --- | --- | --- | --- | --- | --- | --- | --- | --- | --- |
| Nc1nc(O)c2ncn(COC(CO)CO)c2n1 [ganciclovir] | markedly improved activity | – | – | – | – | – | – | – | – | carcinogenicity, teratogenicity, mutagenicity ([1]; human): potential human carcinogen, teratogen, and mutagen |
| CC(=O)OCC(CCn1cnc2cnc(N)nc21)COC(C)=O [Famciclovir] | – | – | – | – | – | – | – | – | – | bioavailability [3]: improved bioavailability |
| Nc1nc2c(ncn2COCCO)c(=O)[nH]1 [acyclovir, 9-(2-hydroxyethoxymethyl)guanine] | – | reduced | reduced | reduced | reduced | reduced | nausea, vomiting, diarrhoea and/or headaches | reduced | reduced | percentage of CD4+ T cells which produce interferon-gamma in response to antigen [4]: reduced; number of CMV-specific T cells (magnitude of interferon-gamma Elispot response) (CMV-specific T cells [6]): reduced; percentage of CD4+ T cells which have lost expression of CD27 (CD4+ T cells; listed as ACV): lower; percentage of CD4+ T cells which have lost expression of CD28 (CD4+ T cells; listed as ACV): lower; percentage of CD4+ T cells which have gained expression of CD57 (CD4+ T cells; listed as ACV): lower; activity against CMV replication in vitro (CMV [7]): minimal activity |
| CC(C)[C@H](N)C(=O)OCC(CO)OCn1cnc2c(=O)nc(N)[nH]c21 (stereo partly shown) [valganciclovir] | markedly improved activity | – | – | – | – | – | – | – | – | – |
| Nc1nc2c(ncn2CCC(CO)CO)c(=O)[nH]1 [penciclovir] | minimal activity | – | – | – | – | – | – | – | – | side effects compared with acyclovir ([1]; treatment of herpesvirus infections): fewer side effects |
| CC(C)[C@H](N)C(=O)OCCOCn1cnc2c(=O)[nH]c(N)nc21 [valacyclovir] | – | reduced | reduced | reduced | reduced | reduced | nausea, vomiting, diarrhoea and/or headaches | reduced | reduced | percentage of CD4+ T cells which have lost expression of CD27 (CD4+ T cells; listed as VCV): lower; percentage of CD4+ T cells which have lost expression of CD28 (CD4+ T cells; listed as VCV): lower; percentage of CD4+ T cells which have gained expression of CD57 (CD4+ T cells; listed as VCV): lower |
